Data reported in patent US9556117B2, “Indole carboxamide derivatives as P2X7 receptor antagonists” (ACTELION PHARMACEUTICALS LTD, priority 2012, dated 2017).

Target: human recombinant P2X7 receptor (Homo sapiens (Human), UniProt Q99572)
Experiment: YO-PRO1 assay, P2X7 receptor antagonistic activity

Sequence of human recombinant P2X7 receptor (Q99572 whole entry): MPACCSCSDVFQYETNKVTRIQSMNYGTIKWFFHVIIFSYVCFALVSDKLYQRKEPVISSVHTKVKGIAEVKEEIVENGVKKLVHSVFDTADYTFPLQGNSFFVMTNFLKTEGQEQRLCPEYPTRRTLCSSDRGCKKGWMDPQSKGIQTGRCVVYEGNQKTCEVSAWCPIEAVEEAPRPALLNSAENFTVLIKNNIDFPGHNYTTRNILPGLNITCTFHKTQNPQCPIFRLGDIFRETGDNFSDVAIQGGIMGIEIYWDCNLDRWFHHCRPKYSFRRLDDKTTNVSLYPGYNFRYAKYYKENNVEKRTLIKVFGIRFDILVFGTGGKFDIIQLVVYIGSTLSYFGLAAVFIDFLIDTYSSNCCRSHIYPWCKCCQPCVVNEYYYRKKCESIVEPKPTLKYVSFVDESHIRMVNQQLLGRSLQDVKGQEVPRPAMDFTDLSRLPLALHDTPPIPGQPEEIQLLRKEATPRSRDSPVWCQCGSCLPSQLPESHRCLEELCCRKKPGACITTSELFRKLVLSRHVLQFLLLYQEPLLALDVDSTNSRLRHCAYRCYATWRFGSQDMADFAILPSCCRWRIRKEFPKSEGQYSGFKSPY

Compound | IC50
CC(O)c1cc(C(=O)NCC2(O)CCC(F)(F)CC2)c(Cl)c2cc[nH]c12 (racemic) [Example 67, rac-4-Chloro-7-(1-hydroxy-ethyl)-1H-indole-5-carboxylic acid (4,4-difluoro-1-hydroxy-cyclohexylmethyl)-amide] | 4.7 nM
O=C(NC(CO)C1CCCCCC1)c1ccc2[nH]ccc2c1Cl (racemic) [Example 10, rac-4-Chloro-1H-indole-5-carboxylic acid (1-cycloheptyl-2-hydroxy-ethyl)-amide] | 57 nM
